Test results published in patent publication US5416119A, “Alkylaminoalkyl-terminated sulfide/sulfonyl-containing cycloalkyl-alanine amino-diol compounds for treatment of hypertension” (G. D. Searle & Co., priority 1993, dated 1995).

Target: T1, Human Renin (Homo sapiens, UniProt P00797)
T1 construct: purchased National Institute for Biological Standards, London
T1 sequence (P00797 67-406): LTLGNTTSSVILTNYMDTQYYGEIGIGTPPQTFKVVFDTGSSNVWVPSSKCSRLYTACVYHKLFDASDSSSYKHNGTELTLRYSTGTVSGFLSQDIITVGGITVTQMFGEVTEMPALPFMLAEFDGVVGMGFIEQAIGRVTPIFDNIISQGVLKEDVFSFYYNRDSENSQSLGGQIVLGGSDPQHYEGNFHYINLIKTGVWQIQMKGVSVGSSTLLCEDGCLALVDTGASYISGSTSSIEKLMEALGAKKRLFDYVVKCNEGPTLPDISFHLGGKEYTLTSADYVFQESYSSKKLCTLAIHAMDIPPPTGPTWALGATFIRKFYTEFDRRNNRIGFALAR
Experiment: Human renin inhibition in vitro (angiotensin I produced, determined by radioimmunoassay)
Assay type: biochemical
Conditions: human plasma, pH 7.4, 37° C., two hours
Protocol: Compounds of Formula I were evaluated as inhibitors of human renin in an in vitro assay, as follows: This human renin inhibition test has been previously described in detail [Papaioannou et al., Clinical and Experimental Hypertension, A7(9), 1243-1257 (1985)]. Human renin was obtained from the National Institute for Biological Standards, London. An incubation mixture was prepared containing the following components: in a total volume of 0.25 mL: 100 mM Tris-acetate buffer at pH 7.4, 25×10^-6 Goldblatt units of renin, 0.05 mL of plasma from human volunteers taking oral contraceptives, 6.0 mM Na-EDTA, 2.4 mM phenylmethyl sulfonyl fluoride, 1.5 mM 8-hydroxyquinoline, 0.4 mg/mL bovine serum albumin (BSA), and 0.024 mg/mL neomycin sulfate. This mixture was incubated for two hours at 37° C. in the presence or absence of renin inhibitors. The produced angiotensin I was determined by radioimmunoassay (New England Nuclear kit). Test compounds to be assayed were dissolved in DMSO and diluted with 100 mM Tris-acetate buffer at pH 7.4 containing 0.5% BSA to the appropriate concentration. The final concentration of organic solvent in the reaction mixture was less than 1%. Control incubations at 37° C. were used to correct for effects of organic solvent on renin activity.

IC50: 1.3 nM
Compound: CC(C)C[C@H](O)[C@H](O)[C@H](CC1CCCCC1)NC(=O)C(CC1CC1)NC(=O)C(Cc1ccccc1)CS(=O)(=O)CCN(C)C (stereo partly drawn) [Example 1, N-[2-[[1S,1R*-(cyclohexylmethyl)-2S*,3R* -dihydroxy-5-methylhexyl]amino]-1R*-(cyclopropylmethyl)-2-oxoethyl]-α-[[[2-(dimethylamino)ethyl]sulfonyl]methyl]benzenepropanamide]
